{"source": "BindingDB's records for doi:10.1021/jm00157a018", "about": "(1987)", "key": {"[1]": {"test": "Binding affinity against Opioid receptor delta 1 of guinea pig brain membranes using 1 nM of [3H]DADLE as radioligand"}, "[2]": {"biological_target": "Mu-type opioid receptor (Cavia porcellus, UniProt P97266)", "sequence (P97266 whole entry)": "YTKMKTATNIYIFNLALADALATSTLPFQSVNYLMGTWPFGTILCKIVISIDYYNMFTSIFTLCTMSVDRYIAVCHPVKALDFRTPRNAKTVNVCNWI", "test": "ChEBML_145291"}}, "note": "Residues, ends and D or L forms follow the SMILES beside them. *: point of attachment. X2 = O=C(N/N=C1/CC[C@@]2(O)[C@H]3Cc4ccc(O)c5c4[C@@]2(CCN3CC2CC2)[C@H]1O5)*; X1 = CN1CC[C@]23c4c5ccc(O)c4O[C@H]2/C(=N\\NC(=O)*)CC[C@@]3(O)[C@H]1C5", "data": [{"smiles": "NC(=O)NN=C1CC[C@@]2(O)C3Cc4ccc(O)c5c4C2(CCN3CC2CC2)[C@H]1O5", "note": "(stereo partly drawn)", "values": [{"measurement": "Ki", "setting": "[1]", "value": 3.7, "unit": "nM"}]}, {"smiles": "CC[C@H](C)[C@H](NC(=O)[C@H](CCCN=C(N)N)NC(=O)[C@H](CCCN=C(N)N)NC(=O)[C@H](CC(C)C)NC(=O)[C@H](Cc1ccccc1)NC(=O)N/N=C1/CC[C@@]2(O)[C@H]3Cc4ccc(O)c5c4[C@@]2(CCN3C)[C@H]1O5)C(=O)OC", "note": "(X1-FLRRI-OMe)", "values": [{"measurement": "Ki", "setting": "[1]", "value": 24, "unit": "nM"}]}, {"smiles": "CN1CCC23c4c5ccc(O)c4O[C@H]2C(=NNC(N)=O)CC[C@@]3(O)C1C5", "note": "(stereo partly drawn)", "values": [{"measurement": "Ki", "setting": "[1]", "value": 69, "unit": "nM"}, {"measurement": "Ki", "setting": "[2]", "value": 15, "unit": "nM"}]}, {"smiles": "CC(C)CC(NC(=O)C(Cc1ccccc1)NC(=O)NN=C1CC[C@@]2(O)C3Cc4ccc(O)c5c4C2(CCN3C)[C@H]1O5)C(=O)O", "note": "(stereo partly drawn)", "values": [{"measurement": "Ki", "setting": "[1]", "value": 6.5, "unit": "nM"}]}, {"smiles": "CC(C)CC(NC(=O)C(Cc1ccccc1)NC(=O)NN=C1CC[C@@]2(O)C3Cc4ccc(O)c5c4C2(CCN3CC2CC2)[C@H]1O5)C(=O)O", "note": "(stereo partly drawn)", "values": [{"measurement": "Ki", "setting": "[1]", "value": 3.1, "unit": "nM"}]}, {"smiles": "CC[C@H](C)[C@H](NC(=O)[C@H](CCCN=C(N)N)NC(=O)[C@H](CCCN=C(N)N)NC(=O)[C@H](CC(C)C)NC(=O)[C@H](Cc1ccccc1)NC(=O)N/N=C1/CC[C@@]2(O)[C@H]3Cc4ccc(O)c5c4[C@@]2(CCN3CC2CC2)[C@H]1O5)C(=O)OC", "note": "(X2-FLRRI-OMe)", "values": [{"measurement": "Ki", "setting": "[1]", "value": 5.7, "unit": "nM"}]}, {"smiles": "CC[C@H](C)[C@H](NC(=O)[C@H](CCCNC(=N)N)NC(=O)[C@H](CCCNC(=N)N)NC(=O)[C@H](CC(C)C)NC(=O)[C@H](Cc1ccccc1)NC(=O)CNC(=O)CNC(=O)[C@@H](N)Cc1ccc(O)cc1)C(=O)OC", "values": [{"measurement": "Ki", "setting": "[1]", "value": 50, "unit": "nM"}]}]}
